{
  "source": "patent US20120035444A1",
  "about": "“INTRAVITAL SAMPLE DEVICE FOR IN VIVO DRUG SCREENING” (NATIONAL TAIWAN UNIVERSITY, priority 2008, published 2012)",
  "system": "liver",
  "details": "feeding for 10 days (FIG. 8)",
  "excerpt": "Two-photon microscopy was used to observe living organism. […] The multiphoton microscope is illustrated in FIG. 5. […] The SHG signal was collected in the backscattering geometry.\nWhen the liver was damaged, the function of hepatocytes would also be damaged. In the present invention, CCl4 was applied to simulate the reaction of hepatocyte when the liver was toxic.",
  "data": [
    {"compound": "ClC(Cl)(Cl)Cl", "note": "[CCl4]", "values": [
      {"measurement": "liver state after feeding CCl4", "result": "fibrosis"}
    ]}
  ]
}
